Test results as given in patent US12630548B2, “Azetidine derivatives for the treatment of integrin associated diseases” (The University of Nottingham, priority 2020, dated 2026).

target: ανβ6 (Homo sapiens, UniProt P06756+P18564); assay: Cell adhesion assay, αvβ6 integrin; format: cell-based; details: cell adhesion data; read-out: ανβ6 IC50
Description: The assays were performed as described in the literature (P. A. Procopiou, N. A. Anderson, J. Barrett, T. N. Barrett, M. H. J. Crawford, B. J. Fallon, A. P. Hancock, J. Le, S. Lemma, R. P. Marshall, J. Morrell, J. M. Pritchard, J. E. Rowedder, P. Saklatvala, R. J. Slack, S. L. Sollis, C. J. Suckling, L. R. Thorp, G. Vitulli, et al., J. Med. Chem. 2018, 61, 8417-8443; S. B. Ludbrook, S. T. Barry, C. J. Delves, C. M. T. Horgan, Biochem. J. 2003, 369, 311-318).

Sequence of ανβ6 (P06756 31-889 limits assumed): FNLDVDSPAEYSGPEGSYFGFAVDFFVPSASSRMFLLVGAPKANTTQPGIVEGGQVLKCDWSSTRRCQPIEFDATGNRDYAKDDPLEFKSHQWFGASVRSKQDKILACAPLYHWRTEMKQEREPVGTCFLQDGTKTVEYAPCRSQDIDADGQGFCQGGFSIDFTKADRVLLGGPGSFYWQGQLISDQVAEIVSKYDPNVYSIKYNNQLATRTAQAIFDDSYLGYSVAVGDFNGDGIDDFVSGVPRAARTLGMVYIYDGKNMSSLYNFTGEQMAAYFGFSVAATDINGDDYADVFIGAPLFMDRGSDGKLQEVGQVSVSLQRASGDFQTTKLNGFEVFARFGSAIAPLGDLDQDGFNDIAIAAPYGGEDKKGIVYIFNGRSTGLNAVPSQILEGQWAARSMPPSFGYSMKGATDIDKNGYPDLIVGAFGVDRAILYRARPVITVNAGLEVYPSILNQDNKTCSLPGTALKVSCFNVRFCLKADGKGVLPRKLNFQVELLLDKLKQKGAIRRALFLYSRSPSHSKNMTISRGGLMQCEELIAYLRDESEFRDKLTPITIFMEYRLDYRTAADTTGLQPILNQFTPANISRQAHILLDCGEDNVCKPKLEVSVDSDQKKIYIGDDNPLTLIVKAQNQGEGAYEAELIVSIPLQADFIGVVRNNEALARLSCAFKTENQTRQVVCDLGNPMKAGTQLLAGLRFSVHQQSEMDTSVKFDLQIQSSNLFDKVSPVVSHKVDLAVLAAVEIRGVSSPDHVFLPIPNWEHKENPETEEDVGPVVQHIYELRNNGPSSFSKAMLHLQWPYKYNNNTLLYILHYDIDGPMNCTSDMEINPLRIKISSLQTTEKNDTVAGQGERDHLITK
Sequence of ανβ6 (P06756 891-1048 limits assumed): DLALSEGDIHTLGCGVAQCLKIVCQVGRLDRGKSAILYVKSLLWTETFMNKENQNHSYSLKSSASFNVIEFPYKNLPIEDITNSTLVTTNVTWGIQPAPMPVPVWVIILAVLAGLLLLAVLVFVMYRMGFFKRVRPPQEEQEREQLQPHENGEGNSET
Sequence of ανβ6 (P18564 22-788): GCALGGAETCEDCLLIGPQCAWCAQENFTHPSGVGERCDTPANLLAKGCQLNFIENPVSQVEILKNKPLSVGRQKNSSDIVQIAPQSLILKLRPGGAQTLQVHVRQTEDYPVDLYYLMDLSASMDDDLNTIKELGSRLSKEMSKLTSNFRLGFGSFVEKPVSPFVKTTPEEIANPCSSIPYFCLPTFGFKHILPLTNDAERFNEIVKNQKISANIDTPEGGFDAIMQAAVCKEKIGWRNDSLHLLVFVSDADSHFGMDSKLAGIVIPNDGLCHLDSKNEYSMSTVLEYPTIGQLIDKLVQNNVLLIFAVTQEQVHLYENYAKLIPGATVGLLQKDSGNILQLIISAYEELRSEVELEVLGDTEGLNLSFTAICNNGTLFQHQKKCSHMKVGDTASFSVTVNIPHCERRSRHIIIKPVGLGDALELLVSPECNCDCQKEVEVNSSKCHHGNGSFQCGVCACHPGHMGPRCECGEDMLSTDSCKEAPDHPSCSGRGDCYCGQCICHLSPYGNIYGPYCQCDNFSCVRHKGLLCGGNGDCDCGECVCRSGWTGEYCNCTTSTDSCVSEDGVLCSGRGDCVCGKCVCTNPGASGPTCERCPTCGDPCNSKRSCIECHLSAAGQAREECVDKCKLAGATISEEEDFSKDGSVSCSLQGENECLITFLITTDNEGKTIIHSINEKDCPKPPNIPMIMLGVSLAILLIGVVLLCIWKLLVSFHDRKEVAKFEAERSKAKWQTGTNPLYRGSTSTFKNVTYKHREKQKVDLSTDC

SMILES	IC50
Cc1cc(Cl)cc(S(=O)(=O)N2CC(C(=O)NC(CNC(=O)CCCCc3ccc4c(n3)NCCC4)C(=O)O)C2)c1 (racemic) [Example 13, 2-(1-(3-chloro-5-methylbenzenesulfonyl)azetidine-3-carboxamido)-3-(5-(5,6,7,8-tetrahydro-1,8-naphthyridin-2-yl)pentanamido)propanoic acid]	< 250 nM
O=C(CCCCc1ccc2c(n1)NCCC2)NC[C@H](NC(=O)C1CN(S(=O)(=O)c2cccc(Cl)c2)C1)C(=O)O [Example 27, (S)-2-(1-(3-Chlorobenzenesulfonyl)azetidine-3-carboxamido)-3-(5-(5,6,7,8-tetrahydro-1,8-naphthyridin-2-yl)pentanamido)propanoic acid]	< 250 nM
CCC1(C(=O)NC(CNC(=O)CCCCc2ccc3c(n2)NCCC3)C(=O)O)CN(S(=O)(=O)c2cccc(C)c2)C1 (racemic) [Example 16, 2-(3-ethyl-1-(3-methylbenzenesulfonyl)azetidine-3-carboxamido)-3-(5-(5,6,7,8-tetrahydro-1,8-naphthyridin-2-yl)pentanamido)propanoic acid]	< 250 nM
O=C(CCCCc1ccc2c(n1)NCCC2)NCC(NC(=O)C1CN(S(=O)(=O)c2cccc(F)c2)C1)C(=O)O (racemic) [Example 5, 2-(1-(3-fluorobenzenesulfonyl)azetidine-3-carboxamido)-3-(5-(5,6,7,8-tetrahydro-1,8-naphthyridin-2-yl)pentanamido)propanoic acid]	< 250 nM
O=C(CCCCc1ccc2c(n1)NCCC2)NC[C@H](NC(=O)C1CN(S(=O)(=O)c2cccc(C3=CCOCC3)c2)C1)C(=O)O [Example 33]	< 250 nM
O=C(CCCCc1ccc2c(n1)NCCC2)NCC(NC(=O)C1CN(S(=O)(=O)c2cccc(C(F)(F)F)c2)C1)C(=O)O (racemic) [Example 7, 3-(5-(5,6,7,8-tetrahydro-1,8-naphthyridin-2-yl)pentanamido)-2-(1-(3-(trifluoromethyl)benzenesulfonyl)azetidine-3-carboxamido)propanoic acid]	< 250 nM
Cc1ccc(S(=O)(=O)N2CC(C(=O)N[C@@H](CCN(C)CCCCc3ccc4c(n3)NCCC4)C(=O)O)C2)cc1 [Example 40, (S)-4-(Methyl(4-(5,6,7,8-tetrahydro-1,8-naphthyridin-2-yl)butyl)amino)-2-(4-methylbenzenesulfonylazetidine-3-carboxamido)butanoic acid]	< 250 nM
Cc1cc(Cl)cc(S(=O)(=O)N2CC(C(=O)N[C@@H](CNC(=O)CCCCc3ccc4c(n3)NCCC4)C(=O)O)C2)c1 [Example 25, (S)-2-(1-(3-Chloro-5-methylbenzenesulfonyl)azetidine-3-carboxamido)-3-(5-(5,6,7,8-tetrahydro-1,8-naphthyridin-2-yl)pentanamido)propanoic acid]	< 250 nM
O=C(CCCCc1ccc2c(n1)NCCC2)NCC(NC(=O)C1CN(S(=O)(=O)c2ccc(F)cc2)C1)C(=O)O (racemic) [Example 2, 2-(1-(4-fluorobenzenesulfonyl)azetidine-3-carboxamido)-3-(5-(5,6,7,8-tetrahydro-1,8-naphthyridin-2-yl)pentanamido)propanoic acid]	< 250 nM
Cc1nc(S(=O)(=O)N2CC(C(=O)NC(CNC(=O)CCCCc3ccc4c(n3)NCCC4)C(=O)O)C2)cn1C (racemic) [Example 22, 2-(1-((1,2-dimethyl-1H-imidazol-4-yl)sulfonyl)azetidine-3-carboxamido)-3-(5-(5,6,7,8-tetrahydro-1,8-naphthyridin-2-yl)pentanamido)propanoic acid]	< 250 nM
CN(CCCCc1ccc2c(n1)NCCC2)CC[C@H](NC(=O)C1CN(S(=O)(=O)c2cccc(Cl)c2)C1)C(=O)O [Example 39, (S)-2-(1-((3-chlorophenyl)sulfonyl)azetidine-3-carboxamido)-4-(methyl(4-(5,6,7,8-tetrahydro-1,8-naphthyridin-2-yl)butyl)amino)butanoic acid]	< 250 nM
O=C(CCCCc1ccc2c(n1)NCCC2)NC[C@H](NC(=O)C1CN(S(=O)(=O)c2cccc(N3CCNCC3)c2)C1)C(=O)O [Example 34, (S)-2-(1-(3-(Piperazin-1-yl)benzenesulfonyl)azetidine-3-carboxamido)-3-(5-(5,6,7,8-tetrahydro-1,8-naphthyridin-2-yl)pentanamido)propanoic acid]	< 250 nM
CS(=O)(=O)c1cccc(S(=O)(=O)N2CC(C(=O)NC(CNC(=O)CCCCc3ccc4c(n3)NCCC4)C(=O)O)C2)c1 (racemic) [Example 12]	< 250 nM
COc1ccc(S(=O)(=O)N2CC(C(=O)N[C@@H](CNC(=O)CCCCc3ccc4c(n3)NCCC4)C(=O)O)C2)cc1OC [Example 32, (S)-2-(1-(3,4-Dimethoxybenzenesulfonyl)azetidine-3-carboxamido)-3-(5-(5,6,7,8-tetrahydro-1,8-naphthyridin-2-yl)pentanamido)propanoic acid]	< 250 nM
CCc1cccc(S(=O)(=O)N2CC(C(=O)N[C@@H](CNC(=O)CCCCc3ccc4c(n3)NCCC4)C(=O)O)C2)c1 [Example 26, (S)-2-(1-(3-Ethylbenzenesulfonyl)azetidine-3-carboxamido)-3-(5-(5,6,7,8-tetrahydro-1,8-naphthyridin-2-yl)pentanamido)propanoic acid]	< 250 nM
Cc1cccc(S(=O)(=O)N2CC(C(=O)N[C@@H](CC(=O)NCCCCc3ccc4c(n3)NCCC4)C(=O)O)C2)c1 [Example 36, N4-(4-(5,6,7,8-Tetrahydro-1,8-naphthyridin-2-yl)butyl)-N2-(1-(3-methylbenzenesulfonyl)azetidine-3-carbonyl)-L-asparagine]	< 250 nM
CCc1cccc(S(=O)(=O)N2CC(C(=O)NC(CNC(=O)CCCCc3ccc4c(n3)NCCC4)C(=O)O)C2)c1 (racemic) [Example 14, 2-(1-(3-ethylbenzenesulfonyl)azetidine-3-carboxamido)-3-(5-(5,6,7,8-tetrahydro-1,8-naphthyridin-2-yl)pentanamido)propanoic acid]	< 250 nM
Cc1cccc(S(=O)(=O)N2CC(C(=O)NC(CNC(=O)CCCCc3ccc4c(n3)NCCC4)C(=O)O)C2)c1 (racemic) [Example 4, 3-(5-(5,6,7,8-tetrahydro-1,8-naphthyridin-2-yl)pentanamido)-2-(1-(3-methylbenzenesulfonyl)azetidine-3-carboxamido)propanoic acid]	< 250 nM
Cn1cc(S(=O)(=O)N2CC(C(=O)NC(CNC(=O)CCCCc3ccc4c(n3)NCCC4)C(=O)O)C2)cn1 (racemic) [Example 19, 2-(1-((1-methyl-1H-pyrazol-4-yl)sulfonyl)azetidine-3-carboxamido)-3-(5-(5,6,7,8-tetrahydro-1,8-naphthyridin-2-yl)pentanamido)propanoic acid]	< 250 nM
Cc1ccc(S(=O)(=O)N2CC(C(=O)NC(CNC(=O)CCCCc3ccc4c(n3)NCCC4)C(=O)O)C2)cc1 (racemic) [Example 1, 3-(5-(5,6,7,8-tetrahydro-1,8-naphthyridin-2-yl)pentanamido)-2-(1-(4-methylbenzenesulfonyl)azetidine-3-carboxamido)propanoic acid]	< 250 nM
O=C(CCCCc1ccc2c(n1)NCCC2)NCC(NC(=O)C1CN(S(=O)(=O)c2cc(Cl)cc(Cl)c2)C1)C(=O)O (racemic) [Example 10, 2-(1-(3,5-dichlorobenzenesulfonyl)azetidine-3-carboxamido)-3-(5-(5,6,7,8-tetrahydro-1,8-naphthyridin-2-yl)pentanamido)propanoic acid]	< 250 nM
Cc1ccccc1S(=O)(=O)N1CC(C(=O)NC(CNC(=O)CCCCc2ccc3c(n2)NCCC3)C(=O)O)C1 (racemic) [Example 3, 3-(5-(5,6,7,8-tetrahydro-1,8-naphthyridin-2-yl)pentanamido)-2-(1-(2-methylbenzenesulfonyl)azetidine-3-carboxamido)propanoic acid]	< 250 nM
Cn1cnc(S(=O)(=O)N2CC(C(=O)NC(CNC(=O)CCCCc3ccc4c(n3)NCCC4)C(=O)O)C2)c1 (racemic) [Example 18, 2-(1-((1-methyl-1H-imidazol-4-yl)sulfonyl)azetidine-3-carboxamido)-3-(5-(5,6,7,8-tetrahydro-1,8-naphthyridin-2-yl)pentanamido) propanoic acid]	< 250 nM
Cc1cccc(S(=O)(=O)N2CC(C(=O)N[C@@H](CCN(C)CCCCc3ccc4c(n3)NCCC4)C(=O)O)C2)c1 [Example 37, (S)-4-(Methyl(4-(5,6,7,8-tetrahydro-1,8-naphthyridin-2-yl)butyl)amino)-2-(1-(3-methylbenzenesulfonyl)azetidine-3-carboxamido)butanoic acid]	< 250 nM
O=C(CCCCc1ccc2c(n1)NCCC2)NC[C@H](NC(=O)C1CN(S(=O)(=O)c2cccc(C3CC3)c2)C1)C(=O)O [Example 30, (S)-2-(1-(3-Cyclopropylbenzenesulfonyl)azetidine-3-carboxamido)-3-(5-(5,6,7,8-tetrahydro-1,8-naphthyridin-2-yl)pentanamido)propanoic acid]	< 250 nM
O=C(CCCCc1ccc2c(n1)NCCC2)NCC(NC(=O)C1CN(S(=O)(=O)c2cccnc2)C1)C(=O)O (racemic) [Example 21, 2-(1-(pyridin-3-ylsulfonyl)azetidine-3-carboxamido)-3-(5-(5,6,7,8-tetrahydro-1,8-naphthyridin-2-yl)pentanamido)propanoic acid]	< 250 nM
O=C(CCCCc1ccc2c(n1)NCCC2)NC[C@H](NC(=O)C1CN(S(=O)(=O)c2ccc3c(c2)CCC3)C1)C(=O)O [Example 31, (S)-2-(1-((2,3-Dihydro-1H-inden-5-yl)sulfonyl)azetidine-3-carboxamido)-3-(5-(5,6,7,8-tetrahydro-1,8-naphthyridin-2-yl)pentanamido)propanoic acid]	< 250 nM
CN(C)CCOc1cccc(S(=O)(=O)N2CC(C(=O)N[C@@H](CNC(=O)CCCCc3ccc4c(n3)NCCC4)C(=O)O)C2)c1 [Example 35]	< 250 nM
